Consider four compounds from paper PMC8799869, “D-enantiomers of CATH-2 enhance the response of macrophages against Streptococcus suis serotype 2” (Journal of Advanced Research, 2021).

Test [1] has as its system S. suis serotype 2 strain D282. Format: cell-based, Streptococcus suis. Conditions: 3 h. On the procedure:
(§1) S. suis serotype 2 strains P1/7, D282, S735, and OV625 were grown into mid-logarithmic phase for 3–4 h at 37 °C in THB, after which bacteria were centrifuged at 1200×g for 10 min at 4 °C and resuspended in fresh THB. Bacterial concentration was determined by measuring optical density at 620 nm with an OD of 1.0 being equivalent to 1x10^8 colony forming units (CFU)/mL. 1x10^6 CFU/mL S. suis was mixed with different concentrations of D-CATH-2 and derivatives (0.63 – 40 µM) and incubated for 3 h at 37 °C. Ten-fold dilutions were prepared and spread in Tryptic Soy agar (TSA) plates containing 5% (v/v) defibrinated sheep blood (Oxoid) and colonies were allowed to grow for 48 h. Minimal Bactericidal Concentration (MBC) was defined as ≤100 CFU/mL (2 log CFU/mL), the detection limit of the assay.

Test [2] has as its system S. suis serotype 2 strain OV625. Format: cell-based, Streptococcus suis. To be noted: 3 h. On the procedure: as §1
For test [3], the system named is S. suis serotype 2 strain P1/7. Format: cell-based, Streptococcus suis. Conditions: 3 h. On the procedure: as §1
The test system of test [4] is S. suis serotype 2 strain S735. Format: cell-based, Streptococcus suis. To be noted: 3 h. On the procedure:
as §1

Test [5] is described as follows: Isothermal titration calorimetry (ITC), peptide binding to LTA. More on the design: species or system S. aureus. Conditions: 200 µM peptide titrated into 37.2 µM LTA-SA, MilliQ:dPBS 3:1, 37 °C, three experiments averaged, independent model, read-out: Kd, dissociation coefficient. On the procedure: The interaction between the D-CATH-2 peptides and LTA-SA was tested using isothermal titration calorimetry (ITC). All ITC experiments were performed on a Low Volume NanoITC (TA instruments - Waters LLC, New Castle, USA). Peptide solution or 37.2 µM LTA-SA was prepared in MilliQ:dPBS (Gibco) in a 3:1 ratio. The chamber was filled with 164 µL LTA-SA and the peptide was loaded in the 50 µL syringe. Every 300 s, 1.99 µL peptide was titrated into the chamber at 37 °C. Data was analyzed using the Nano Analyze software (TA instruments-Waters LLC). The data of three experiments was averaged and an independent model was used to determine the peptide-LTA interaction.

The test system of the next test is E. coli. To be noted: in ovo administration three days before hatch; cited from earlier work. An excerpt:
In this study injection of D-C(1–21) reduced disease severity and increased the survival rate, although the differ ...

A further test deals with murine BMDMs. As to the kind of experiment: BMDM differentiation after peptide exposure at day 1, flow cytometry. The class given is cell-based, mouse. To be noted: 1.25 µM peptide at day 1 of culture for 24 h. On the procedure: Murine bone marrow cells, isolated from the femur and tibia of both hindlegs, were stored in fetal calf serum (FCS) (Corning, NY, USA) containing 10% DMSO (Sigma-Aldrich, MO, USA) in liquid nitrogen. Cells were grown at a concentration of 5x10^5 cells/mL in RPMI-1640 without phenol red (Thermo Fisher Scientific, MA, USA) supplemented with 10% FCS and 1% penicillin/streptomycin (Thermo Fisher Scientific). Bone marrow-derived macrophages (BMDM) and bone marrow-derived dendritic cells (BMDC) were cultured by adding 20 ng/mL murine recombinant M−CSF or GM-CSF (PeproTech, NJ, USA) respectively. Where indicated, cells were supplemented with 1.25 µM peptide at day 1, which was replaced by fresh medium at day 2. The medium of all cells was replaced by fresh medium without antibiotics at day 3. At day 6 cells were stimulated with 1 µg/mL LTA from S. aureus (LTA-SA) (Invivogen, CA, USA) or with the different S. suis strains at a multiplicity of infection (MOI) of 0.2. Medium containing S. suis was removed after 2 h and replaced by medium containing 200 µg/mL gentamycin (Sigma) and left for an additional 22 h. After 24 h, medium was collected and stored at −20 °C for cytokine measurements. […] Cells were stained with antibodies (Table 1) for 20 min, washed and measured using aBD FACSCanto-II (BD Biosciences, NJ, USA) and analyzed with FlowJo software (Ashland, OR, USA).

The subject of another test is S. suis P1/7. As to the kind of experiment: In vivo prophylactic S. suis P1/7 infection model. More on the design: species or system mouse. On the procedure:
Upon arrival, mice were allowed to acclimatize for at least 7 days before the start of the experiment. The experiment was performed as depicted in Fig. 5A. The experiment was repeated twice to obtain in total 4 mice in the control groups and 12 mice in the infection groups. At day 1, mice were subcutaneously injected in the neck region with 1 mg/kg D-C(1–21) in PBS/cholesterol or with PBS/cholesterol alone. Cholesterol was added 5% v/v, 2 mg/ml in ethanol. The peptide and control groups were blinded to avoid any influence by the researchers. After 24 h (group 1) or after 7 days (group 2), mice were intraperitoneally infected with 10^7 CFU S. suis P1/7 in THB or with THB alone as control. 24 h after infection, a few drops of blood were collected via cheek puncture for bacterial count. During the infection phase of the experiment, mice were checked every 12 h in the acute phase of disease (first 48 h) and thereafter daily until the end of the study. A cumulative clinical score was given to the mice as measure of disease using several parameters as depicted in Table 4, according to Seitz et al.. When a mouse obtained a clinical score of 2 for a minimum of 3 out of 8 scoring points two days in a row, or in case of severe weight loss (>20%), the mouse was euthanized for animal welfare reasons (humane end point (HEP)) and the organs were collected for bacterial counts as described hereafter. Seven days post infection all mice were sacrificed for further analysis. Mice were anesthetized using isoflurane and 1 mL blood was drawn via heart puncture, followed by cervical dislocation. The peritoneum was flushed with 5 mL PBS/0.5 mM EDTA and diluted in 10 mL ice cold PBS/0.5% FCS. Spleen, lungs, liver, lymph nodes (axillary, inguinal, and mesenteric), brain, kidney and bone marrow were collected and stored in ice cold PBS. All organs, except the bone marrow and lymph nodes were weighed using a Sartorius microbalance. The peritoneal lavage (PTL) samples were counted using the Countess II Automated Cell Counter (Invitrogen, CA, USA). The lungs, liver, brain and kidney were meshed through a 40 µm filter (BD Biosciences) with 5 mL PBS to obtain single cell suspensions. Spleen and lymph nodes were digested with digestion buffer (1.5 WU/mL liberase TL grade, 100 Units/ml recombinant DNAse I, both Roche) for 30 min at 37 °C and meshed through a 40 µm filter using 5 mL PBS/0.5 mM EDTA. The red blood cells of the blood and spleen were lysed using an isotonic ammonium chloride buffer (155 mM NH4Cl, 10 mM KHCO3, 0.1 mM EDTA) for 5–10 min on ice, washed 1x with PBS and were resuspended in FACS buffer (PBS/0.5% BSA). Bone marrow samples were flushed out the femur and tibia of both legs with 5 mL PBS and filtered through a 40 µm filter. A sample of the blood, bone marrow, spleen, peritoneal lavage and lymph nodes was taken and stained for 30 min with different antibody panels (Table 1) and measured using the BD FACS Canto-II and analyzed with FlowJo V8. Of the lungs, liver, brain, kidney, spleen and peritoneal lavage samples, a 10-fold serial dilution was prepared and the samples were plated on TSA plates containing 5% (v/v) defibrinated sheep blood. The colonies were allowed to grow for 48 h at 37 °C. The number of colonies were counted, with ≤ 100 CFU/mL (2 log CFU/mL) as detection limit of the assay and calculated as CFU/mg organ.

For test [6] the following is noted: previously shown; read-out: dissociation coefficient to LPS; cited from earlier work. On the procedure:
Inhibition of LPS-induced, and to a lesser extent LTA-induced activation, is a widely studied immunomodulatory aspect of cathelicidins. […] The dissociation coefficient to LTA is with 2–10 µM much higher than previously shown for L-CATH-2 to LPS with a dissociation coefficient of 0.08 µM, [32] indicating a stronger binding to LPS than to LTA. However, since D-CATH-2 was highly efficient at inhibiting LTA-induced activation, it might also be that the inh ...

Converted amounts (≈) assume the structure as drawn. Read-outs that look alike come from different tables or passages of the source. Where a SMILES comes first, the peptide text is derived from it. Where no end group is shown, it is not given here. [ ]: non-standard residue; d: D form.

By MBC is commonly meant the lowest tested concentration that kills the bacteria rather than only halting them. As for `CC[C@@H](C)[C@@H](NC(=O)[C@@H](CCCCN)NC(=O)[C@@H](CCCNC(=N)N)NC(=O)[C@@H](CC(C)C)NC(=O)[C@@H](Cc1ccccc1)NC(=O)[C@@H](CCCNC(=N)N)NC(=O)CNC(=O)[C@@H](Cc1ccccc1)NC(=O)[C@H](N)CCCNC(=N)N)C(=O)N[C@H](CCCNC(=N)N)C(=O)N[C@H](CCCNC(=N)N)C(=O)N[C@H](Cc1ccccc1)C(=O)N[C@H](CCCNC(=N)N)C(=O)N1CCC[C@@H]1C(=O)N[C@H](CCCCN)C(=O)N[C@@H](C(=O)N[C@@H](C(=O)N[C@@H](C(=O)N[C@@H](C(=O)N[C@@H](C(=O)N[C@H](CCC(N)=O)C(=O)NCC(=O)N[C@H](CO)C(=O)N[C@H](C)C(=O)N[C@H](CCCNC(=N)N)C(=O)N[C@H](Cc1ccccc1)C(N)=O)[C@H](C)CC)[C@H](C)O)[C@H](C)CC)[C@H](C)O)C(C)C` [D-CATH-2] (H-[dR][dF]G[dR][dF][dL][dR][dK][dI][dR][dR][dF][dR][dP][dK][dV][dT][dI][dT][dI][dQ]G[dS][dA][dR][dF]-NH2; N-terminus assumed), the minimum bactericidal concentration (MBC) in test [1] lay in the range of 2.5 to 5 µM; in test [2], 1.25 to 5 µM; in [3], 2.5 to 5 µM; in [4], 1.25 to 2.5 µM. Also, the Kd in [5] was found to be 3040 nM. Moreover, the “protection of chickens against infection” value in the test with E. coli is reported as “protects chickens up to 7 days post hatch”.
As to `CC[C@@H](C)[C@@H](NC(=O)[C@@H](CCCCN)NC(=O)[C@@H](CCCNC(=N)N)NC(=O)[C@@H](CC(C)C)NC(=O)[C@@H](Cc1ccccc1)NC(=O)[C@@H](CCCNC(=N)N)NC(=O)CNC(=O)[C@@H](Cc1ccccc1)NC(=O)[C@H](N)CCCNC(=N)N)C(=O)N[C@H](CCCNC(=N)N)C(=O)N[C@H](CCCNC(=N)N)C(=O)N[C@H](Cc1ccccc1)C(=O)N[C@H](CCCNC(=N)N)C(=O)N1CCC[C@@H]1C(=O)N[C@H](CCCCN)C(=O)N[C@@H](C(=O)N[C@@H](C(=O)N[C@@H](C(=O)N[C@@H](C(=O)N[C@@H](C(=O)N[C@H](CCC(N)=O)C(N)=O)[C@H](C)CC)[C@H](C)O)[C@H](C)CC)[C@H](C)O)C(C)C` [D-C(1–21)] (H-[dR][dF]G[dR][dF][dL][dR][dK][dI][dR][dR][dF][dR][dP][dK][dV][dT][dI][dT][dI][dQ]-NH2; N-terminus and C-terminus assumed), the MBC was 2.5 to 5 µM in [1], 0.6 to 5 µM in test [2], 2.5 µM (≈ 6.72 µg/mL) in test [3] and 2.5 µM (≈ 6.72 µg/mL) in test [4]. For the same compound, the Kd in [5] was 10200 nM. Besides, in the test with murine BMDMs, the “BMDM differentiation efficiency, percentage of cells expressing F4/80 at day 6” value was “most pronounced”. The cumulative clinical score result in the test on S. suis P1/7 (1 mg/kg s.c., infected 24 h post peptide injection, late stage of disease) is “small reduction of cumulative clinical score”; in the test on S. suis P1/7 (1 mg/kg s.c., infected 7 days post peptide injection, acute phase of disease) it was “reduction in cumulative clinical score”. In addition, the survival result in the test with S. suis P1/7 (1 mg/kg s.c., infected either 24 h or 7 days post peptide injection) is “higher chance of survival”. Moreover, the “bodyweight loss up to 48 h post infection” value with S. suis P1/7 (1 mg/kg s.c., infected i.p. with 10^7 CFU 24 h or 7 d post peptide injection, same in control mice) is “approximately 8%”. The “bacteria in the blood 7 days post infection” value in the test with S. suis P1/7 (24 h D-C(1–21) treated mice) is listed as “no mice had bacteria left in the bloodstream”. Moreover, the “number of S. suis positive organs per mouse” value in the test with S. suis P1/7 (24 h D-C(1–21) treated mice versus untreated, not statistically significant) was “generally less S. suis positive organs”. In the test with S. suis P1/7 (24 h D-C(1–21) treated mice versus untreated, not statistically significant, not found for 7 day treated mice), the “total CFU counts in organs” value was “lower total CFU counts”. Also, the “S. suis bacteria in the bloodstream 24 h post infection” value in the test with S. suis P1/7 (all mice, treated or not) was 10^5-10^6 CFU/mL. In the test on S. suis P1/7 (treated mice reaching HEP before the end of the study, especially in the brain), the “bacterial counts in organs of mice reaching the HEP” value was “less bacterial counts”.
Consider `CC[C@@H](C)[C@@H](NC(=O)[C@@H](CCCCN)NC(=O)[C@@H](CCCNC(=N)N)NC(=O)[C@@H](CC(C)C)NC(=O)[C@@H](Cc1ccccc1)NC(=O)[C@H](N)CCCNC(=N)N)C(=O)N[C@H](CCCNC(=N)N)C(=O)N[C@H](CCCNC(=N)N)C(=O)N[C@H](Cc1ccccc1)C(=O)N[C@H](CCCNC(=N)N)C(=O)N1CCC[C@@H]1C(=O)N[C@H](CCCCN)C(=O)N[C@@H](C(=O)N[C@@H](C(=O)N[C@@H](C(=O)N[C@@H](C(=O)N[C@@H](C(=O)N[C@H](CCC(N)=O)C(N)=O)[C@H](C)CC)[C@H](C)O)[C@H](C)CC)[C@H](C)O)C(C)C` [D-C(4–21)] (H-[dR][dF][dL][dR][dK][dI][dR][dR][dF][dR][dP][dK][dV][dT][dI][dT][dI][dQ]-NH2; N-terminus and C-terminus assumed), for which the minimum bactericidal concentration (MBC) is 2.5 to 5 µM in test [1], 1.25 to 2.5 µM in [2], 5 to 10 µM in [3] and 2.5 µM (≈ 5.82 µg/mL) in [4]. In addition, the Kd in [5] was found to be 2120 nM.
“L-CATH-2: natural chicken cathelicidin-2 (RFGRFLRKIRRFRPKVTITIQGSARF-NH2)”: the Kd in [6] was 80 nM.
